Test results from PubChem BioAssay (NCI).
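Method: 48-hour compound exposure of cells in 96-well plates, five concentrations, linear interpolation of endpoints. The concentration for 50% growth inhibition is given as GI50. TGI marks complete inhibition of growth.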

Columns and labels:
Experiment in all cases: NCI anticancer screen, dose series, 48 h
DU-145 prostate = system: DU-145 prostate
UACC-257 melanoma = system: UACC-257 melanoma
HL-60(TB) leukemia = system: HL-60(TB) leukemia
A498 renal = system: A498 renal
M14 melanoma = system: M14 melanoma
SF-268 CNS = system: SF-268 CNS
T-47D breast = system: T-47D breast
COLO 205 colon = system: COLO 205 colon
SN12C renal = system: SN12C renal
RPMI-8226 leukemia = system: RPMI-8226 leukemia
MCF7 breast = system: MCF7 breast
786-0 renal = system: 786-0 renal
HOP-62 NSCLC = system: HOP-62 NSCLC
HCC-2998 colon = system: HCC-2998 colon
SK-MEL-5 melanoma = system: SK-MEL-5 melanoma
HCT-15 colon = system: HCT-15 colon
OVCAR-3 ovarian = system: OVCAR-3 ovarian
U251 CNS = system: U251 CNS
SF-539 CNS = system: SF-539 CNS
TK-10 renal = system: TK-10 renal
SNB-19 CNS = system: SNB-19 CNS
MDA-MB-435 = system: MDA-MB-435
NCI-H226 lung = system: NCI-H226 lung
UACC-62 melanoma = system: UACC-62 melanoma
UO-31 renal = system: UO-31 renal
MDA-MB-468 breast = system: MDA-MB-468 breast
ACHN renal = system: ACHN renal
CCRF-CEM leukemia = system: CCRF-CEM leukemia
KM12 colon = system: KM12 colon
SNB-75 CNS = system: SNB-75 CNS
OVCAR-4 ovarian = system: OVCAR-4 ovarian
HOP-92 NSCLC = system: HOP-92 NSCLC
LOX IMVI melanoma = system: LOX IMVI melanoma
NCI-H460 lung = system: NCI-H460 lung
IGROV1 ovarian = system: IGROV1 ovarian
SR leukemia = system: SR leukemia
MALME-3M melanoma = system: MALME-3M melanoma
SK-MEL-28 melanoma = system: SK-MEL-28 melanoma
NCI/ADR-RES ovarian = system: NCI/ADR-RES ovarian
SK-MEL-2 melanoma = system: SK-MEL-2 melanoma
SK-OV-3 ovarian = system: SK-OV-3 ovarian
SW-620 colon = system: SW-620 colon
A549 NSCLC = system: A549 NSCLC
EKVX NSCLC = system: EKVX NSCLC
HT29 colon = system: HT29 colon
OVCAR-8 ovarian = system: OVCAR-8 ovarian
CAKI-1 renal = system: CAKI-1 renal
PC-3 prostate = system: PC-3 prostate
K-562 leukemia = system: K-562 leukemia
BT-549 breast = system: BT-549 breast
OVCAR-5 ovarian = system: OVCAR-5 ovarian
HCT-116 colon = system: HCT-116 colon
MOLT-4 leukemia = system: MOLT-4 leukemia
SF-295 CNS = system: SF-295 CNS
HS 578T breast = system: HS 578T breast
MDA-MB-231 breast = system: MDA-MB-231 breast
RXF 393 renal = system: RXF 393 renal
NCI-H522 lung = system: NCI-H522 lung
NCI-H23 lung = system: NCI-H23 lung

O=C(CSc1nnc(-c2ccc3nc(-c4ccc(Cl)cc4)[nH]c3c2)o1)Nc1ccc(Br)cc1
GI50 (DU-145 prostate): 5.83 µM | TGI (DU-145 prostate): 19.1 µM | GI50 (UACC-257 melanoma): 5.65 µM | TGI (UACC-257 melanoma): 20.5 µM | GI50 (HL-60(TB) leukemia): 2.91 µM | TGI (HL-60(TB) leukemia): 15.6 µM | GI50 (A498 renal): 18.8 µM | TGI (A498 renal): 34.8 µM | GI50 (M14 melanoma): 2.56 µM | TGI (M14 melanoma): 6.09 µM | GI50 (SF-268 CNS): 5.66 µM | TGI (SF-268 CNS): 22.3 µM | GI50 (T-47D breast): 18.3 µM | TGI (T-47D breast): 65.8 µM | GI50 (COLO 205 colon): 12.8 µM | TGI (COLO 205 colon): 27.5 µM | GI50 (SN12C renal): 2.91 µM | TGI (SN12C renal): 11.2 µM | GI50 (RPMI-8226 leukemia): 8.26 µM | TGI (RPMI-8226 leukemia): 86.3 µM | GI50 (MCF7 breast): 3.86 µM | TGI (MCF7 breast): 17.7 µM | GI50 (786-0 renal): 2.13 µM | TGI (786-0 renal): 4.76 µM | GI50 (HOP-62 NSCLC): 5.96 µM | TGI (HOP-62 NSCLC): 20.2 µM | GI50 (HCC-2998 colon): 8.56 µM | TGI (HCC-2998 colon): 20.9 µM | GI50 (SK-MEL-5 melanoma): 3.69 µM | TGI (SK-MEL-5 melanoma): 13.6 µM | GI50 (HCT-15 colon): 4.18 µM | TGI (HCT-15 colon): 16.3 µM | GI50 (OVCAR-3 ovarian): 11.3 µM | TGI (OVCAR-3 ovarian): 28.2 µM | GI50 (U251 CNS): 2.69 µM | TGI (U251 CNS): 6.66 µM | GI50 (SF-539 CNS): 2.86 µM | TGI (SF-539 CNS): 9.19 µM | GI50 (TK-10 renal): 20.2 µM | TGI (TK-10 renal): 36.8 µM | GI50 (SNB-19 CNS): 4.2 µM | TGI (SNB-19 CNS): 14.6 µM | GI50 (MDA-MB-435): 2.9 µM | TGI (MDA-MB-435): 9.3 µM | GI50 (NCI-H226 lung): 3.45 µM | TGI (NCI-H226 lung): 16 µM | GI50 (UACC-62 melanoma): 4.63 µM | TGI (UACC-62 melanoma): 16.8 µM | GI50 (UO-31 renal): 11.8 µM | TGI (UO-31 renal): 24 µM | GI50 (MDA-MB-468 breast): 5.31 µM | TGI (MDA-MB-468 breast): 17.6 µM | GI50 (ACHN renal): 3.47 µM | TGI (ACHN renal): 12.5 µM | GI50 (CCRF-CEM leukemia): 3.33 µM | TGI (CCRF-CEM leukemia): 20.4 µM | GI50 (KM12 colon): 10.4 µM | TGI (KM12 colon): 41.5 µM | GI50 (SNB-75 CNS): 2.36 µM | TGI (SNB-75 CNS): 14.1 µM | GI50 (OVCAR-4 ovarian): 6.65 µM | TGI (OVCAR-4 ovarian): 26.7 µM | GI50 (HOP-92 NSCLC): 3.55 µM | TGI (HOP-92 NSCLC): 15.7 µM | GI50 (LOX IMVI melanoma): 1.63 µM | TGI (LOX IMVI melanoma): 2.98 µM | GI50 (NCI-H460 lung): 2.39 µM | TGI (NCI-H460 lung): 5.78 µM | GI50 (IGROV1 ovarian): 10.6 µM | TGI (IGROV1 ovarian): 23 µM | GI50 (SR leukemia): 9.89 µM | TGI (SR leukemia): > 100 µM | GI50 (MALME-3M melanoma): 3.83 µM | TGI (MALME-3M melanoma): 15.4 µM | GI50 (SK-MEL-28 melanoma): 5.04 µM | TGI (SK-MEL-28 melanoma): 17.5 µM | GI50 (NCI/ADR-RES ovarian): 4.31 µM | TGI (NCI/ADR-RES ovarian): 15.7 µM | GI50 (SK-MEL-2 melanoma): 4.74 µM | TGI (SK-MEL-2 melanoma): 18.4 µM | GI50 (SK-OV-3 ovarian): 16.5 µM | TGI (SK-OV-3 ovarian): 31.7 µM | GI50 (SW-620 colon): 4.99 µM | TGI (SW-620 colon): 18.5 µM | GI50 (A549 NSCLC): 3.89 µM | TGI (A549 NSCLC): 19.8 µM | GI50 (EKVX NSCLC): 9.52 µM | TGI (EKVX NSCLC): 21.6 µM | GI50 (HT29 colon): 5.66 µM | TGI (HT29 colon): 27.3 µM | GI50 (OVCAR-8 ovarian): 3.9 µM | TGI (OVCAR-8 ovarian): 19.4 µM | GI50 (CAKI-1 renal): 3.74 µM | TGI (CAKI-1 renal): 14.9 µM | GI50 (PC-3 prostate): 3.28 µM | TGI (PC-3 prostate): 16.6 µM | GI50 (K-562 leukemia): 3.2 µM | TGI (K-562 leukemia): 15.1 µM | GI50 (BT-549 breast): 2.66 µM | TGI (BT-549 breast): 6.12 µM | GI50 (OVCAR-5 ovarian): 14.2 µM | TGI (OVCAR-5 ovarian): 29.5 µM | GI50 (HCT-116 colon): 2.78 µM | TGI (HCT-116 colon): 7.81 µM | GI50 (MOLT-4 leukemia): 3.19 µM | TGI (MOLT-4 leukemia): 15.4 µM | GI50 (SF-295 CNS): 6.17 µM | TGI (SF-295 CNS): 19.2 µM | GI50 (HS 578T breast): 4.09 µM | TGI (HS 578T breast): 24.7 µM | GI50 (MDA-MB-231 breast): 2.37 µM | TGI (MDA-MB-231 breast): 6.07 µM | GI50 (RXF 393 renal): 2.6 µM | TGI (RXF 393 renal): 8.42 µM | GI50 (NCI-H522 lung): 4.73 µM | TGI (NCI-H522 lung): 19.8 µM | GI50 (NCI-H23 lung): 2.4 µM | TGI (NCI-H23 lung): 6.17 µM
